Measured values taken from patent publication US11629192B2, “Methods and pharmaceutical compositions for the treatment of diseases mediated by the NRP-1/OBR complex signaling pathway” (INSERM (Institut National de la Sante et de la Recherche …, priority 2014, dated 2023).

Tested on: P-NRP-1
Test: NRP-1 (P-NRP-1) and OBR phosphorylation in MDA-MB-231, immunostaining / coimmunoprecipitation
Type: cell-based, human
Conditions: MDA-MB-231 serum starved, Leptin (10 nM)
Text: Beside the modulation of the NRP-1/OBR complex formation by Leptin and OBR phosphorylation, we postulated a possible phosphorylation of NRP-1 that can regulate the translocation of the complex to the nucleus. Two putative phosphorylation sites of NRP-1 have been reported with no more investigation. The first one at the extracellular B domain as reported by Shintani et al in 2009 with no antibody available and the second one at the Threonine 916 located in the cytoplasmic domain as it was reported by Kyle et al in 2011. Since a specific antibody against P-NRP-1 at the T916 was available, we investigated by coimmunoprecipitation the detection of P-NRP-1 in MDA-MB-231 after serum starvation and stimulation by Leptin (10 nM). […] To confirm this phosphorylation state, we investigated the possible implication of a Serine/threonine Kinase CK2 using one of its first chemical inhibitor (DRB). In serum starved condition, P-NRP-1 was detected as polarized spot in the cytoplasm and the nucleus of MDA-MB-231. […] The inhibition was specific since, in stimulated condition combined with DMSO at the same dilution of DRB, we were able to observe a diffuse nuclear P-NRP-1 staining.

Leptin: small non glycosylated protein, ligand of OBR
NRP-1 phosphorylation (T916): phosphorylated
